pIC50: −log10 of the molar value.
Test system: 454973-116-R2-J3-PDC spheroids, viability, % test/control
Assay: Anticancer human tumor 454973-116-R2-J3-PDC patient-derived pancreatic carcinoma cell line growth inhibition [GQUAD]
Details: spheroids with HUVEC and MSC; for pIC50: curve of first compound; for viability, T/C: stronger effect = lower value; active means viability on the fitted dose curve at most 10% of control; inactive means the rest
From the text: DNA G-quadruplex Stabilizer Agents in Combinations in Complex Spheroids
A high-throughput screen of multi-cell type tumor spheroids was designed to identify active combinations of DNA G-quadruplex stabilizer agents and targeted small molecules. Complex spheroids include a stromal component modeled by human endothelial cells (HUVEC) and fibroblasts modeled by human mesenchymal stem cells (MSCs). The concentration ranges selected for each drug and investigational agent were based upon clinically achievable concentrations if the clinical Cmax of the agent was known.
Compounds. The drugs and investigational agents: pidnarulex (CX-5461; NSC782164), APTO-253 (NSC789042), BRACO-19 (NSC847499), peposertib (NSC802822), ceralasertib (NSC780249), elimusertib (NSC800525), camonsertib (NSC841442), AZD-1390 (NSC803789), olaparib (NSC753686), talazoparib (NSC767125), ART-558 (NSC835418), sotorasib (NSC818433), MRTX-1133 (NSC836407), SN-38 (NSC673596), topotecan (NSC609699), etoposide (NSC141540), doxorubicin (NSC123127), gemcitabine (NSC613327), 5-fluorouracil (NSC19893), paclitaxel (NSC125973), vemurafenib (NSC761431), panobinostat (NSC761190), R-306465 (JNJ-16241199; NSC773264), adavosertib (NSC754352), TP-3654 (NSC805149), carboplatin (NSC241240), KSQ-4279 (NSC840948), and staurosporine (NSC755774) were obtained from the National Cancer Institute (NCI) Developmental Therapeutics Program Chemical Repository (34). The FDA-approved anticancer drug set is available from the NCI Developmental Therapeutics Program. […] The stock solutions were prepared in dimethyl sulfoxide (DMSO, Sigma-Aldrich, St. Louis, MO, cat. D2650) at 800-fold the tested concentration and stored at -70 degrees C prior to their use. All drugs and investigational agents were tested over a range starting from a high concentration at or near the clinical Cmax and decreasing in half-log increments. If the clinical Cmax for an agent had not been determined, the highest concentration tested was 10 microM.
2.3 Cell Culture. All cells were maintained in an incubator at 37 degrees C and 5% CO2 with 95% humidity. The PDC lines were cultured according to standard operating procedures established by the NCI PDMR. All PDCs were thawed and cultured in Matrigel-coated flasks prepared with a working solution of 1X Ham's F-12 nutrient mix, without supplementation (Invitrogen, cat. 11765054), 100 U/mL penicillin-streptomycin (Invitrogen, cat. 15140122), and 2.5% Matrigel (Corning Inc., cat. 354248) for the first three passages. The 857933-349-R-J2-PDC line was cultured in 6C/Colon 1B media, which includes advanced DMEM/F-12 (Thermo Fisher Scientific, cat. 12634028), 10 mM HEPES (Thermo Fisher Scientific, cat. 15630080), 1X GlutaMAX supplement (Thermo Fisher Scientific, cat. 35050061), 0.1 mg/mL primocin (InvivoGen, cat. ant-pm-2), 10% defined fetal bovine serum, heat inactivated (HyClone Laboratories Inc., cat. SH30070.03HI), 50% L-WRN conditioned media (ATCC, cat. CRL-3276), 1.25 mM N-Acetyl-L-cysteine (Sigma-Aldrich, cat. A9165), 10 mM nicotinamide (Sigma-Aldrich, cat. N0636), 1X B-27 supplement (Thermo Fisher Scientific, cat. 17504044), 1X N-2 supplement (Thermo Fisher Scientific, cat. 17502048), 10 microM Y-27632 dihydrochloride (Tocris Bioscience, cat. 1254), and 50 ng/mL human EGF recombinant protein (Thermo Fisher Scientific, cat. PHG0311). The 485176-168-R4-J1-PDC line was cultured in Panc media, which includes all 6C/Colon 1B media components plus 100 ng/mL human FGF-10 (Thermo Fisher Scientific, cat. 100-26), 500 nM SB-431542 (Selleckchem, cat. S1067), and gastrin (Tocris, cat. 3006).
[…]

[1] = second compound 0.0316 µM, first compound 0.0316 µM
[2] = second compound 0.0316 µM, first compound 0.1 µM
[3] = second compound 0.0316 µM, first compound 0.316 µM
[4] = second compound 0.0316 µM, first compound 1 µM
[5] = second compound 0.0316 µM, first compound 3.16 µM
[6] = second compound 0.0316 µM, first compound 10 µM
[7] = second compound 0.1 µM, first compound 0.0316 µM
[8] = second compound 0.1 µM, first compound 0.1 µM
[9] = second compound 0.1 µM, first compound 0.316 µM
[10] = second compound 0.1 µM, first compound 1 µM
[11] = second compound 0.1 µM, first compound 3.16 µM
[12] = second compound 0.1 µM, first compound 10 µM
[13] = second compound 0.316 µM, first compound 0.0316 µM
[14] = second compound 0.316 µM, first compound 0.1 µM
[15] = second compound 0.316 µM, first compound 0.316 µM
[16] = second compound 0.316 µM, first compound 1 µM
[17] = second compound 0.316 µM, first compound 3.16 µM
[18] = second compound 0.316 µM, first compound 10 µM
[19] = second compound 1 µM, first compound 0.0316 µM
[20] = second compound 1 µM, first compound 0.1 µM
[21] = second compound 1 µM, first compound 0.316 µM
[22] = second compound 1 µM, first compound 1 µM
[23] = second compound 1 µM, first compound 3.16 µM
[24] = second compound 1 µM, first compound 10 µM
[25] = second compound 3.16 µM, first compound 0.0316 µM
[26] = second compound 3.16 µM, first compound 0.1 µM
[27] = second compound 3.16 µM, first compound 0.316 µM
[28] = second compound 3.16 µM, first compound 1 µM
[29] = second compound 3.16 µM, first compound 3.16 µM
[30] = second compound 3.16 µM, first compound 10 µM
[31] = second compound 10 µM, first compound 0.0316 µM
[32] = second compound 10 µM, first compound 0.1 µM
[33] = second compound 10 µM, first compound 0.316 µM
[34] = second compound 10 µM, first compound 1 µM
[35] = second compound 10 µM, first compound 3.16 µM
[36] = second compound 10 µM, first compound 10 µM
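Further: spheroids exposed to compounds for seven days.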

O=c1[nH]cc(F)c(=O)[nH]1 + CN(C)c1ccc(Nc2c3ccc(NC(=O)CCN4CCCC4)cc3nc3cc(NC(=O)CCN4CCCC4)ccc23)cc1
inactive: viability, T/C [1] 114% | viability, T/C [2] 98.1% | viability, T/C [3] 108% | viability, T/C [4] 84.2% | viability, T/C [5] 32.1% | viability, T/C [6] 30.2% | viability, T/C [7] 106% | viability, T/C [8] 95.6% | viability, T/C [9] 103% | viability, T/C [10] 83.4% | viability, T/C [11] 28.5% | viability, T/C [12] 31.7% | viability, T/C [13] 102% | viability, T/C [14] 103% | viability, T/C [15] 96.8% | viability, T/C [16] 81.1% | viability, T/C [17] 35.1% | viability, T/C [18] 38.6% | viability, T/C [19] 92.5% | viability, T/C [20] 99% | viability, T/C [21] 89.2% | viability, T/C [22] 56.9% | viability, T/C [23] 35.7% | viability, T/C [24] 35.1% | viability, T/C [25] 89.5% | viability, T/C [26] 71.5% | viability, T/C [27] 95.7% | viability, T/C [28] 59.9% | viability, T/C [29] 32.2% | viability, T/C [30] 37.6% | viability, T/C [31] 78.9% | viability, T/C [32] 74.2% | viability, T/C [33] 78% | viability, T/C [34] 64.8% | viability, T/C [35] 38.7% | viability, T/C [36] 36%
5.67: pIC50 (second compound 0.0316 µM)
5.69: pIC50 (second compound 0.1 µM)
5.72: pIC50 (second compound 10 µM)
5.80: pIC50 (second compound 3.16 µM)
5.65: pIC50 (second compound 0.316 µM)
5.84: pIC50 (second compound 1 µM)

CC(C)n1c(=O)n(C)c2cnc3cc(F)c(-c4ccc(OCCCN5CCCCC5)nc4)cc3c21 + CN(C)c1ccc(Nc2c3ccc(NC(=O)CCN4CCCC4)cc3nc3cc(NC(=O)CCN4CCCC4)ccc23)cc1
inactive: viability, T/C [1] 108% | viability, T/C [2] 94.8% | viability, T/C [3] 104% | viability, T/C [4] 99.2% | viability, T/C [5] 78.7% | viability, T/C [6] 73.5% | viability, T/C [7] 103% | viability, T/C [8] 118% | viability, T/C [9] 95.2% | viability, T/C [10] 97.1% | viability, T/C [11] 68.7% | viability, T/C [12] 76.1% | viability, T/C [13] 103% | viability, T/C [14] 103% | viability, T/C [15] 99.5% | viability, T/C [16] 89.1% | viability, T/C [17] 75.1% | viability, T/C [18] 73.8% | viability, T/C [19] 99.6% | viability, T/C [20] 99.3% | viability, T/C [21] 91.7% | viability, T/C [22] 66.3% | viability, T/C [23] 81.8% | viability, T/C [24] 65.3% | viability, T/C [25] 85.7% | viability, T/C [26] 91.7% | viability, T/C [27] 95.9% | viability, T/C [28] 65.8% | viability, T/C [29] 72.5% | viability, T/C [30] 63.7% | viability, T/C [31] 76.9% | viability, T/C [32] 74.6% | viability, T/C [33] 69% | viability, T/C [34] 61.4% | viability, T/C [35] 61.8% | viability, T/C [36] 34.1%
< 5.00: pIC50 (second compound 0.0316 µM) | pIC50 (second compound 0.1 µM) | pIC50 (second compound 0.316 µM) | pIC50 (second compound 1 µM) | pIC50 (second compound 3.16 µM)
5.35: pIC50 (second compound 10 µM)

Source: PubChem BioAssay AID2060508 (Molecular Pharmacology Branch, DTP, NCI, 2025)
